This is an account of results in ChEMBL document CHEMBL3991601, “The target landscape of clinical kinase drugs” (Science, 2017).

The source made the active and inactive calls. Where only a bound is given, the exact number is not on record here.

Assay [1] addresses Protein kinase C delta type (Homo sapiens, UniProt Q05655).
The target of assay [2] is DNA topoisomerase 2-beta (Homo sapiens, UniProt Q02880).
Assay [3] has as its target Protein kinase C beta type (Homo sapiens, UniProt P05771).
The target of assay [4] is T1, Acyl-CoA dehydrogenase family member 10 (Homo sapiens, UniProt Q6JQN1).
T1 sequence (Q6JQN1 whole entry): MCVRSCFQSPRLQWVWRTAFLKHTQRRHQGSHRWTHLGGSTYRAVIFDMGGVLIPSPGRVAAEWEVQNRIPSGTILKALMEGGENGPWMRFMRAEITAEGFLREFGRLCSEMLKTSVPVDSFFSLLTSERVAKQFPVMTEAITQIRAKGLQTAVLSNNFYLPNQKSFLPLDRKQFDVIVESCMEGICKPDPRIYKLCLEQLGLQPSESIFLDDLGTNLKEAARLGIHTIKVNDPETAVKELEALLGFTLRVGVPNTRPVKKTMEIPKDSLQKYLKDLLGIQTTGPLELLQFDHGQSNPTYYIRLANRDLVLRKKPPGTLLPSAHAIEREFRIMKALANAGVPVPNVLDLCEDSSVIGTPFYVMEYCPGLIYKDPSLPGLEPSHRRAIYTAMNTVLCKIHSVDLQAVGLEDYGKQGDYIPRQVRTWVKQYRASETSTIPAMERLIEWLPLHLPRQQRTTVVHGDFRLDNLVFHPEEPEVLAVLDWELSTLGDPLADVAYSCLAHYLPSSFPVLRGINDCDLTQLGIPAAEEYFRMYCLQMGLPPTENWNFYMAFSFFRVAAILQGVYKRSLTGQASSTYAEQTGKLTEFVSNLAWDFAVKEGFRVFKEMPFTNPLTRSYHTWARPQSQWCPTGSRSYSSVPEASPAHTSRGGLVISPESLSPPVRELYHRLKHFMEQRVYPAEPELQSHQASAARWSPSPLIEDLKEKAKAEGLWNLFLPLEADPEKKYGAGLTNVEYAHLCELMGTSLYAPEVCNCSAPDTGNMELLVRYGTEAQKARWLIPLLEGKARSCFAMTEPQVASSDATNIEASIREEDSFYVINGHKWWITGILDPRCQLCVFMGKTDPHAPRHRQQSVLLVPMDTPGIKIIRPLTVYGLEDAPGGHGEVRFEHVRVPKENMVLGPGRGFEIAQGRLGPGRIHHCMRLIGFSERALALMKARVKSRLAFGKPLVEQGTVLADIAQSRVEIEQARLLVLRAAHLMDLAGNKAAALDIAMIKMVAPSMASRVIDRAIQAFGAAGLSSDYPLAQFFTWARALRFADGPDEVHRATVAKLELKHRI

The target of assay [5] is T2, Ephrin type-B receptor 4 (Homo sapiens, UniProt P54760).
T2 sequence (P54760 whole entry): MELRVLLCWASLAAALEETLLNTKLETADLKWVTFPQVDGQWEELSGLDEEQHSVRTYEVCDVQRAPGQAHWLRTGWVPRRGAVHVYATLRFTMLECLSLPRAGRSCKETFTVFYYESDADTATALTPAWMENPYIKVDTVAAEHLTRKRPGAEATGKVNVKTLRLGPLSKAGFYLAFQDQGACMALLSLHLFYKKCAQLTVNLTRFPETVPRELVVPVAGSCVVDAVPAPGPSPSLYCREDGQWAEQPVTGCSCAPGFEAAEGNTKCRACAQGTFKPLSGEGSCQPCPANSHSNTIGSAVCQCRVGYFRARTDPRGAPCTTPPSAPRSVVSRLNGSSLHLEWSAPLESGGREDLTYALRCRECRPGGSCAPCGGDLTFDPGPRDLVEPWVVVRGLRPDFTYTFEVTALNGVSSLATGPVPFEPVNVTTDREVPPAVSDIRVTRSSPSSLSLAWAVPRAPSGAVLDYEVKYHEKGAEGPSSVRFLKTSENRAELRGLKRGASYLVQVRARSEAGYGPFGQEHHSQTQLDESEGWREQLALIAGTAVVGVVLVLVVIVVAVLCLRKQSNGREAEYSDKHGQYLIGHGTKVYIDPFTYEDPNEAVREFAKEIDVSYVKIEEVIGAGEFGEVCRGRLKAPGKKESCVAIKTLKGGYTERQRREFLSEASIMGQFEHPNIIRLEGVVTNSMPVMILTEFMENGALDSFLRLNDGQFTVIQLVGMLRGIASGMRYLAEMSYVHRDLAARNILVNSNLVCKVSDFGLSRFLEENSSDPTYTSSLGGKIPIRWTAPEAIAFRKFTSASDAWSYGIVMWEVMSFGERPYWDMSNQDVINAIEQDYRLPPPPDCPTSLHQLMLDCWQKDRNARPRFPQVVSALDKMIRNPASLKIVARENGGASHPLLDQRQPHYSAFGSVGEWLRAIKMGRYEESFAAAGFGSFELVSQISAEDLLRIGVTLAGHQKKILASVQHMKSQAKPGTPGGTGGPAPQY

Assay [6] addresses cAMP-dependent protein kinase catalytic subunit gamma (Homo sapiens, UniProt P22612).
Note: in the data inactive means no Kd found up to 30 µM.

Sequence of Protein kinase C delta type (Q05655 whole entry): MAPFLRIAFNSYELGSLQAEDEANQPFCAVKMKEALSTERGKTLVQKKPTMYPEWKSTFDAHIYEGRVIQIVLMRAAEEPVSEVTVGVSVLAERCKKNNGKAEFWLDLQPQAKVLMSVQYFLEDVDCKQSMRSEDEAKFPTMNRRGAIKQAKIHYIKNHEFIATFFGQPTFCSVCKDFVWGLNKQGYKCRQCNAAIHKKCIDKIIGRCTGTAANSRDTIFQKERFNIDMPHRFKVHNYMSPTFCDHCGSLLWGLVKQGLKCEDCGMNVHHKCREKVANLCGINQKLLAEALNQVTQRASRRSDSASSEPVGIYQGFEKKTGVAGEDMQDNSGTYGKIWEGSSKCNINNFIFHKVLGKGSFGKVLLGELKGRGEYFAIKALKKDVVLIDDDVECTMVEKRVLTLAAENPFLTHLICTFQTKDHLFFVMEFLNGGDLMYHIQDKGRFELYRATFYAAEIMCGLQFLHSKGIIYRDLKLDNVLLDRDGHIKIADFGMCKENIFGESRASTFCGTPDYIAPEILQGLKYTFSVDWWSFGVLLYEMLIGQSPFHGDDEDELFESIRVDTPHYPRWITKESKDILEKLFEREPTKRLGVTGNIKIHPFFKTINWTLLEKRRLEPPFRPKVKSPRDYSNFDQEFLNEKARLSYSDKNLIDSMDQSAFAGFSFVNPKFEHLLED
Sequence of DNA topoisomerase 2-beta (Q02880 whole entry): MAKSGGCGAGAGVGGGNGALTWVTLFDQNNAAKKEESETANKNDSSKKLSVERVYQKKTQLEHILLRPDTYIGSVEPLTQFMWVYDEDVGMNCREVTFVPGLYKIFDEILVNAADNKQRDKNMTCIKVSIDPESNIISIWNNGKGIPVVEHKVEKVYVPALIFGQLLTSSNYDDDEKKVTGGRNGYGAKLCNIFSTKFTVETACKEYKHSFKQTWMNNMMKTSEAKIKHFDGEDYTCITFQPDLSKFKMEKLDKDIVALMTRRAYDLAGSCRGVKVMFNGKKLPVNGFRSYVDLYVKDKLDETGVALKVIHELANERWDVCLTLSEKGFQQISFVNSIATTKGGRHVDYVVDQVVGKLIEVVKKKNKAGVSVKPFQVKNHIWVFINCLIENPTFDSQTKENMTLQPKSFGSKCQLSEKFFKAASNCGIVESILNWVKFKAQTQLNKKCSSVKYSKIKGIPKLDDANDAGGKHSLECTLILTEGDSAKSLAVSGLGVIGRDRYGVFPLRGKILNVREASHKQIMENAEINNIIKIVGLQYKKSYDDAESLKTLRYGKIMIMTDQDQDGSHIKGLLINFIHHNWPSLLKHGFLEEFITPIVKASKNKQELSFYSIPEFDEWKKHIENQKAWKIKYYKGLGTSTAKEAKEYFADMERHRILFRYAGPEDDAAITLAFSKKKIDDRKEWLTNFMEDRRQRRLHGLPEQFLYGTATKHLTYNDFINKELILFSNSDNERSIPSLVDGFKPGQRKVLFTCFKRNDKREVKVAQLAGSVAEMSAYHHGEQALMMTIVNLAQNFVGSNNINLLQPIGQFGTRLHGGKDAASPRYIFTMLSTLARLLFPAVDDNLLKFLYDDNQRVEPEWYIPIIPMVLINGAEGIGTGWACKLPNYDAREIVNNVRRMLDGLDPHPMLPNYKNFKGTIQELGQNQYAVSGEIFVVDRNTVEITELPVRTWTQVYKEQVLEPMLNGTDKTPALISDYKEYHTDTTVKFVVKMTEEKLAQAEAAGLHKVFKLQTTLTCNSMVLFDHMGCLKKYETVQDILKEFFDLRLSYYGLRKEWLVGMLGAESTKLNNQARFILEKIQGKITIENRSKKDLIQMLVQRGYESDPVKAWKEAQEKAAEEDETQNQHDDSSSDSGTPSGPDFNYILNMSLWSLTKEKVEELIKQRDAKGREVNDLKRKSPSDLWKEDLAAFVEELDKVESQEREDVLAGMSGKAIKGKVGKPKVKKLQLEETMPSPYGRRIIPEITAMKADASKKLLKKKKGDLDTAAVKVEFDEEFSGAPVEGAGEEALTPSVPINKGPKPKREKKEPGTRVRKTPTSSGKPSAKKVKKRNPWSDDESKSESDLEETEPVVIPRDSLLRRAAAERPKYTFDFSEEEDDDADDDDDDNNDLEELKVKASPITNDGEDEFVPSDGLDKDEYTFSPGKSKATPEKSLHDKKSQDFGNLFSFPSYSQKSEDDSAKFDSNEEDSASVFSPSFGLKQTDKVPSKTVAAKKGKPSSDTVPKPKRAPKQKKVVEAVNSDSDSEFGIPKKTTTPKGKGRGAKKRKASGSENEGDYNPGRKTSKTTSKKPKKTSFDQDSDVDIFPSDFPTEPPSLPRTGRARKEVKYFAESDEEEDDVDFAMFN
Sequence of Protein kinase C beta type (P05771 whole entry): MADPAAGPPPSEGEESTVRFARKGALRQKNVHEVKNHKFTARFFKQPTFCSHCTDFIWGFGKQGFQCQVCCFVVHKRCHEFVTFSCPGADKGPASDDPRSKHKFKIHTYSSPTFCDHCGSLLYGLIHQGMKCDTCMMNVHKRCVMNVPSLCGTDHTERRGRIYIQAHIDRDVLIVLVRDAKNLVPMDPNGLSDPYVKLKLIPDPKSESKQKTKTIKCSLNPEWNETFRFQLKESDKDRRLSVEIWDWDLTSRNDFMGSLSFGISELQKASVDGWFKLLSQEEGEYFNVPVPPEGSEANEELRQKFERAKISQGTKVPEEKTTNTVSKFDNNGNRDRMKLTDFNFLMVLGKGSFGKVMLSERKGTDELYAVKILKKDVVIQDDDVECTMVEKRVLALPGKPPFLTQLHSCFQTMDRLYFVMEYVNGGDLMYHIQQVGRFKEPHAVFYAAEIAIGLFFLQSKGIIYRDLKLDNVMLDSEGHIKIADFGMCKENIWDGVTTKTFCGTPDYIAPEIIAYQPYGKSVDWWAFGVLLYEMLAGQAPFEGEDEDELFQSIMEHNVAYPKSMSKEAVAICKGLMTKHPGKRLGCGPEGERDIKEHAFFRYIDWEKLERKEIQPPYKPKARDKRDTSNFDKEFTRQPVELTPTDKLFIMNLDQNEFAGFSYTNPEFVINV
Sequence of cAMP-dependent protein kinase catalytic subunit gamma (P22612 whole entry): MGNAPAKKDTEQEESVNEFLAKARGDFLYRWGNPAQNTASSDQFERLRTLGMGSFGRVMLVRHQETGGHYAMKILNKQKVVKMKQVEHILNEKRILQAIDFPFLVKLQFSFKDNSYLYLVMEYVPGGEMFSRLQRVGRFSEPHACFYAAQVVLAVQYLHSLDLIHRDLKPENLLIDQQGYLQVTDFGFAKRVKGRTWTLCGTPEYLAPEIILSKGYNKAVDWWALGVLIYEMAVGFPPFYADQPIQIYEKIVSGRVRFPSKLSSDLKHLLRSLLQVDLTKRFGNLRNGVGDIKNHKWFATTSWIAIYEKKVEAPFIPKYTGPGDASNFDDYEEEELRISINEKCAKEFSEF

A word on the Kd: it is the concentration at which binding is half-saturated. Consider `FC(F)(F)c1ccc(CNc2ccc(Cc3c[nH]c4ncc(Cl)cc34)cn2)cn1` [PEXIDARTINIB], for which the Kd in assay [1], in assay [2], in assay [3], in assay [4], in assay [5] and in assay [6] was > 30 µM (inactive) each time.
Consider `Cc1cc(C(=O)Nc2cc(Oc3ccc4nc(NC(=O)C5CC5)cn4n3)ccc2C)n(C)n1` [TAK-593], for which the Kd in assay [1], in assay [2], in assay [3], in assay [4], in assay [5] and in assay [6] was > 30 µM (inactive) each time.
Turning to `C=CCn1c(=O)c2cnc(Nc3ccc(N4CCN(C)CC4)cc3)nc2n1-c1cccc(C(C)(C)O)n1` [ADAVOSERTIB], the Kd in assay [1], in assay [2], in assay [3], in assay [4], in assay [5] and in assay [6] was > 30 µM (inactive) each time.
For `CCc1nc(C(N)=O)c(Nc2ccc(N3CCC(N4CCN(C)CC4)CC3)c(OC)c2)nc1NC1CCOCC1` [GILTERITINIB], the Kd in assay [1], in assay [2], in assay [3], in assay [4], in assay [5] and in assay [6] was > 30 µM (inactive) each time.
Turning to `CCOc1ccn(-c2ccc(F)cc2)c(=O)c1C(=O)Nc1ccc(Oc2ccnc(N)c2Cl)c(F)c1` [BMS-777607], the Kd in assay [1], in assay [2], in assay [3], in assay [4], in assay [5] and in assay [6] was > 30 µM (inactive) in each case.
As for `COc1cc(F)c(F)c(Nc2ccc(I)cc2F)c1NS(=O)(=O)C1(C[C@H](O)CO)CC1` [REFAMETINIB], the Kd in assay [1], in assay [2], in assay [3], in assay [4], in assay [5] and in assay [6] was > 30 µM (inactive) throughout.
Regarding `COc1cc2ncnc3c2cc1OCCCCCN(C)Cc1ccc(Br)cc1N3` [JNJ-26483327], the Kd in assay [1], in assay [2], in assay [3], in assay [4], in assay [5] and in assay [6] was > 30 µM (inactive) in each case.
On to `C=CC(=O)Nc1cccc(Nc2nc(Nc3ccc(N4CCN(C(C)=O)CC4)cc3OC)ncc2C(F)(F)F)c1` [ROCILETINIB], for which the Kd in assay [1], in assay [2], in assay [3], in assay [4], in assay [5] and in assay [6] was > 30 µM (inactive) in each case.
Consider `CCc1cc2c(cc1N1CCC(N3CCOCC3)CC1)C(C)(C)c1[nH]c3cc(C#N)ccc3c1C2=O` [ALECTINIB], for which the Kd in assay [1], in assay [2], in assay [3], in assay [4], in assay [5] and in assay [6] was > 30 µM (inactive) in each case.
On to `Cc1c(NC(=O)OC[C@@H]2COCCN2)cn2ncnc(Nc3ccc4c(cnn4Cc4cccc(F)c4)c3)c12` [AC-480], for which the Kd in assay [1], in assay [2], in assay [3], in assay [4], in assay [5] and in assay [6] was > 30 µM (inactive) each time.
In the case of `Cc1cc(-c2cc(OC(=O)c3ccccc3)ccc2Cl)cc2nnc(Nc3ccc(OCCN4CCCC4)cc3)nc12` [TG100-801], the Kd was > 30 µM (inactive) in assay [1]; > 30 µM (inactive) in assay [2]; > 30 µM (inactive) in assay [3]; > 30 µM (inactive) in assay [4]; 0.711 µM (active) in assay [5]; > 30 µM (inactive) in assay [6].
In the case of `COc1cc2nccc(Oc3ccc(NC(=O)C4(C(=O)Nc5ccc(F)cc5)CC4)cc3)c2cc1OC` [CABOZANTINIB], the Kd in assay [1], in assay [2], in assay [3], in assay [4], in assay [5] and in assay [6] was > 30 µM (inactive) throughout.
For `Cc1c(Cn2c(C)nc3c(C(=O)O)cc(N4CCOCC4)cc32)cccc1C(F)(F)F` [GSK-2636771], the Kd in assay [1], in assay [2], in assay [3], in assay [4], in assay [5] and in assay [6] was > 30 µM (inactive) in each case.
For the molecule `Cc1cc(Nc2nc(N[C@@H](C)c3ncc(F)cn3)ncc2Cl)n[nH]1` [AZD-1480], the Kd in assay [1], in assay [2], in assay [3], in assay [4], in assay [5] and in assay [6] was > 30 µM (inactive) throughout.
Turning to `CNC(=O)c1cc(COc2nnc(Nc3ccc(Cl)cc3)c3ccoc23)ccn1` [TELATINIB], the Kd in assay [1], in assay [2], in assay [3], in assay [4], in assay [5] and in assay [6] was > 30 µM (inactive) each time.
Consider `O=C(NC[C@H](O)CO)c1ccncc1Nc1ccc(I)cc1F` [PIMASERTIB], for which the Kd in assay [1], in assay [2], in assay [3], in assay [4], in assay [5] and in assay [6] was > 30 µM (inactive) in each case.
With `CC(C)CC(=O)Nc1[nH]nc2c1CN(C(=O)C1CCN(C)CC1)C2(C)C` [PHA-793887], the Kd in assay [1], in assay [2], in assay [3], in assay [4], in assay [5] and in assay [6] was > 30 µM (inactive) each time.
As for `O=C(NOC[C@H](O)CO)c1ccc(F)c(F)c1Nc1ccc(I)cc1F` [MIRDAMETINIB], the Kd in assay [1], in assay [2], in assay [3], in assay [4], in assay [5] and in assay [6] was > 30 µM (inactive) throughout.
